Experimental data published in paper PMC8343220, “The selectivity of α‐adrenoceptor agonists for the human α1A, α1B, and α1D‐adrenoceptors” (Pharmacology Research & Perspectives, 2021).

Assays:
human α1B‐adrenoceptor [1] = molecular target: T1, human α1B‐adrenoceptor (Homo sapiens, UniProt P35368); assay: ^3H‐cAMP accumulation in the presence of 10 μM forskolin, CHO‐α1B cells; format: cell-based; settings: CHO‐α1B cells; for cAMP accumulation (in presence of forskolin) Fold increase: fold increase of the forskolin response; for EC50: in presence of forskolin, read-out: cAMP accumulation (in presence of forskolin) Log EC50 (converted)
T1 construct: expressed in transfected cells; host or cells: CHO-K1
T1 sequence (P35368 1-520): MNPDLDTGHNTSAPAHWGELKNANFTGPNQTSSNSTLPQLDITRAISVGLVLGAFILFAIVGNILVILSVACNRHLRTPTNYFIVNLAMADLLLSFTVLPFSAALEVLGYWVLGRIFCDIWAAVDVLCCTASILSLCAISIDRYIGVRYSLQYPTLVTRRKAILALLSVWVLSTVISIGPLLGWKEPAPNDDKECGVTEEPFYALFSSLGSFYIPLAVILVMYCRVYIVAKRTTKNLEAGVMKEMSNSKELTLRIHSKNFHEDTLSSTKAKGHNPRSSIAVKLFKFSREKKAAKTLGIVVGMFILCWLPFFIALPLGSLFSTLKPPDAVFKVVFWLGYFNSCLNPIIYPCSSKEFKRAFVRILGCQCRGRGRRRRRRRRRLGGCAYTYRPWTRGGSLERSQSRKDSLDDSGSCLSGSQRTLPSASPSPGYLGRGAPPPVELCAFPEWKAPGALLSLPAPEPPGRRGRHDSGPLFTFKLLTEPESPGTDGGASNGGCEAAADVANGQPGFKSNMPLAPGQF

[2] = molecular target: T2, human α1D‐adrenoceptor (full length) (Homo sapiens, UniProt P25100); assay: ^3H‐cAMP accumulation, CHO‐α1D cells; format: cell-based; settings: cAMP accumulation without forskolin
T2 construct: human α1D‐adrenoceptor (full length) were used; expressed in transfected cells; host or cells: CHO-K1
T2 sequence (P25100 1-572): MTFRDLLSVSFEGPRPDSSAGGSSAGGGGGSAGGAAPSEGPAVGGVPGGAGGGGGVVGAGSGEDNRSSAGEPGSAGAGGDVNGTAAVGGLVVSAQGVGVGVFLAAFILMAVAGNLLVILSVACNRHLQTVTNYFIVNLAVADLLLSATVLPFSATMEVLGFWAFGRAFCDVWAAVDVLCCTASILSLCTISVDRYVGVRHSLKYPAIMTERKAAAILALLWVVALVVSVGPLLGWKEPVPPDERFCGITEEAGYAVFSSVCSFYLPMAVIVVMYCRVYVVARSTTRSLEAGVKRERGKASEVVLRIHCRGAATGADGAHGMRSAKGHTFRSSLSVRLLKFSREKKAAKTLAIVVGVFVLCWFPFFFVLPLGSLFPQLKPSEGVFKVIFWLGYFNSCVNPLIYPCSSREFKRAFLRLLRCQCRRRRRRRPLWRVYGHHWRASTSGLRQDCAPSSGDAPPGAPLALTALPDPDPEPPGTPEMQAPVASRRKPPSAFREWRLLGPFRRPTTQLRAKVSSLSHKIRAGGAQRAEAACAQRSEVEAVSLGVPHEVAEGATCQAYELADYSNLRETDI

human α1B‐adrenoceptor [3] = molecular target: T1, human α1B‐adrenoceptor; assay: Intracellular free calcium mobilization, CHO‐α1B cells; format: cell-based; settings: CHO‐α1B cells; for EC50: given as log EC50 (negative numbers), read-out: Intracellular calcium release Log EC50 (converted); for Log efficacy ratio KD /EC50: intrinsic efficacy ratio, KD from binding / EC50 calcium; for Intracellular calcium release % ionomycin: maximal response as % of 10 µM ionomycin response
[4] = molecular target: T2, human α1D‐adrenoceptor (full length); assay: ERK1/2‐phosphorylation (Surefire Alphascreen), CHO‐α1D cells; format: cell-based; settings: CHO‐α1D cells; for EC50: read-out: ERK1/2‐phosphorylation Log EC50 (converted); for ERK1/2‐phosphorylation % PDBu: maximal response as % of PDBu
[5] = tested on: parental CHO cell line without any transfected receptors; assay: ERK1/2‐phosphorylation, parent CHO cells without transfected receptors; format: cell-based, Chinese hamster; settings: for Emax at 100 µM: Cricetulus griseus, CHO, read-out: ERK1/2-phosphorylation % PDBu at 100μM; for ERK1/2-phosphorylation % PDBu / ERK1/2-phosphorylation Log EC50: CHO cells without transfected receptors, mean ± s.e.m.; for ERK1/2-phosphorylation % PDBu: maximal response as % of PDBu (10μM) response
human α1B‐adrenoceptor [6] = molecular target: T1, human α1B‐adrenoceptor; assay: ^3H‐prazosin whole‐cell radioligand binding, CHO‐α1B cells; settings: CHO‐α1B cells; for IC50: printed as IC50> log value
[7] = molecular target: T2, human α1D‐adrenoceptor (full length); assay: Intracellular free calcium mobilization, CHO‐α1D cells; format: cell-based; settings: CHO‐α1D cells; for Log efficacy ratio KD /EC50: intrinsic efficacy ratio, binding KD / calcium EC50; for EC50: log values given negative, read-out: Intracellular calcium release Log EC50 (converted); for Intracellular calcium release % ionomycin: maximal response as % of 10 µM ionomycin
[8] = molecular target: T2, human α1D‐adrenoceptor (full length); assay: ^3H‐cAMP accumulation in the presence of 10 μM forskolin, CHO‐α1D cells; format: cell-based; settings: CHO‐α1D cells; for cAMP (in presence of forskolin) Fold increase: fold increase of the forskolin response; for EC50: in presence of forskolin, log values given negative
[9] = tested on: parental CHO cell line without any transfected receptors; assay: Forskolin‐stimulated cAMP accumulation, parent CHO cells without transfected receptors; format: cell-based, Chinese hamster; settings: CHO cells without transfected receptors; in presence of forskolin
human α1A‐adrenoceptor [10] = molecular target: T3, human α1A‐adrenoceptor (Homo sapiens, UniProt P35348); assay: ^3H‐cAMP accumulation in the presence of 10 μM forskolin, CHO‐α1A cells; format: cell-based; settings: CHO‐α1A cells; for EC50: 10 μM forskolin, read-out: cAMP accumulation (in presence of forskolin) Log EC50 (converted); for cAMP accumulation (in presence of forskolin) Fold increase: fold increase of the forskolin response
T3 construct: expressed in transfected cells; host or cells: CHO-K1
T3 sequence (P35348 1-466): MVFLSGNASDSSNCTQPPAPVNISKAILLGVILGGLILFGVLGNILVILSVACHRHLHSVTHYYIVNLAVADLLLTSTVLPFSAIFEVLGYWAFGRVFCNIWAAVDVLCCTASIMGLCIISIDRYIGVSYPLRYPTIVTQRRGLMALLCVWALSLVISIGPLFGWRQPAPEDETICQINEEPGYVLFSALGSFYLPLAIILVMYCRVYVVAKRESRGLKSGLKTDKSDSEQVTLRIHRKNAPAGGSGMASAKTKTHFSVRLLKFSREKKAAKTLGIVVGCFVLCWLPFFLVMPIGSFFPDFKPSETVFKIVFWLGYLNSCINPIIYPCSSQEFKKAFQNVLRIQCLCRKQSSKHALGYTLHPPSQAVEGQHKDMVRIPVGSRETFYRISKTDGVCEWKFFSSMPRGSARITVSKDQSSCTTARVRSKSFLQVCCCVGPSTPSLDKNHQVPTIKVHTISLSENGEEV

human α1B‐adrenoceptor [11] = molecular target: T1, human α1B‐adrenoceptor; assay: ^3H‐cAMP accumulation, CHO‐α1B cells; format: cell-based; settings: CHO‐α1B cells; for cAMP accumulation % forskolin: % forskolin maximum response; for EC50: read-out: cAMP accumulation Log EC50 (converted); for cAMP accumulation % forskolin at 100 µM: response at 100 µM ligand (no EC50 given)
human α1A‐adrenoceptor [12] = molecular target: T3, human α1A‐adrenoceptor; assay: ^3H‐prazosin whole‐cell radioligand binding, CHO‐α1A cells; settings: for Kd: CHO‐α1A cells, given as log KD (negative), mean ± SEM; for Affinity selectivity ratio α1A vs α1B: higher affinity for α1A than α1B; for Affinity selectivity ratio α1A vs α1D: higher affinity for α1A than α1D
human α1A‐adrenoceptor [13] = molecular target: T3, human α1A‐adrenoceptor; assay: ERK1/2‐phosphorylation (Surefire Alphascreen), CHO‐α1A cells; format: cell-based; settings: CHO‐α1A cells, ^a bi‐phasic: initial stimulatory part; for EC50: 2–4 min, ^b also active in parent CHO cells, read-out: ERK1/2‐phosphorylation Log EC50 (converted); for ERK1/2‐phosphorylation % PDBu: % of 10 µM PDBu
[14] = Log KD α1A, ^3H‐prazosin whole cell binding

Compound | cAMP accumulation (in presence of forskolin) Fold increase (human α1B‐adrenoceptor [1]) | EC50 (human α1B‐adrenoceptor [1]) | cAMP Log EC50 [2] | EC50 (human α1B‐adrenoceptor [3]) | Log efficacy ratio KD /EC50 (human α1B‐adrenoceptor [3]) | Intracellular calcium release % ionomycin (human α1B‐adrenoceptor [3]) | EC50 ([4]; log values given negative) | ERK1/2‐phosphorylation % PDBu [4] | Log efficacy ratio KD /EC50 [7] | EC50 [7] | Intracellular calcium release % ionomycin [7] | cAMP (in presence of forskolin) Fold increase [8] | EC50 [8] | cAMP accumulation (in presence of forskolin) Log EC50 [9] | EC50 (human α1A‐adrenoceptor [10]) | cAMP accumulation (in presence of forskolin) Fold increase (human α1A‐adrenoceptor [10]) | Affinity selectivity ratio α1A vs α1B (human α1A‐adrenoceptor [12]) | Affinity selectivity ratio α1A vs α1D (human α1A‐adrenoceptor [12]) | EC50 (human α1A‐adrenoceptor [13]) | ERK1/2‐phosphorylation % PDBu (human α1A‐adrenoceptor [13]) | further results
N=C(N)NC(=O)Cc1c(Cl)cccc1Cl [Guanfacine] | 2.67 ± 0.18 fold | 0.324 µM | No response | 0.0269 µM | 3.70 | 59.0 ± 2.4% | 6.92 µM | 16.1 ± 4.0% | 0.53 | 3.47 µM | 28.6 ± 2.0% | 1.20 ± 0.7 | 0.229 µM | No response | 0.155 µM | 2.22 ± 0.05 fold | 28.8 fold | 2.5 fold | 0.0347 µM | 87.4 ± 2.3% | Emax at 100 µM [5]: 2.5 ± 1.7%; Kd (human α1B‐adrenoceptor [6]; given as log KD (negative), mean ± SEM): 135 µM; cAMP accumulation % forskolin (human α1B‐adrenoceptor [11]): 39.0 ± 5.8%; EC50 (human α1B‐adrenoceptor [11]): 1.62 µM; Kd (human α1A‐adrenoceptor [12]): 4.68 µM
Clc1ccc2nsnc2c1NC1=NCCN1 [Tizanidine] | 2.01 ± 0.11 fold | 0.182 µM | – | 0.0891 µM | 2.70 | 48.8 ± 1.8% | – | No response | – | – | – | – | – | No response | 0.123 µM | 2.36 ± 0.10 fold | 12.9 fold | 1.1 fold | 0.0372 µM | 82.1 ± 3.9% | ERK1/2‐phosphorylation Log EC50 ([4]; log values given negative): No response; Emax at 100 µM [5]: 6.7 ± 3.3%; Kd (human α1B‐adrenoceptor [6]; Log KD α1B, ^3H‐prazosin whole cell binding, given as log KD (negative), mean ± SEM): 44.7 µM; Kd (human α1B‐adrenoceptor [6]; Log KD, ^3H‐prazosin binding, whole‐cell binding (from Table 1), given as log KD (negative numbers)): 44.7 µM; Intracellular calcium release % Ionomycin at 100 µM ([7]; response at 100 µM ligand (no EC50 given)): 2.5 ± 0.8%; cAMP accumulation % forskolin (human α1B‐adrenoceptor [11]): 10.7 ± 1.5%; EC50 (human α1B‐adrenoceptor [11]): 0.708 µM; Kd (human α1A‐adrenoceptor [12]; [14]): 3.47 µM
CCNCC(O)c1cccc(O)c1 (centres unmarked) [Etilefrine] | 2.47 ± 0.09 fold | 0.661 µM | No response | 0.0138 µM | >4.86 | 61.1 ± 2.1% | 1.51 µM | 16.8 ± 2.0% | 1.42 | 1.35 µM | 13.7 ± 1.8% | 1.18 ± 0.04 | 0.759 µM | No response | 1.29 µM | 2.17 ± 0.08 fold | >9.8 fold | – | 0.145 µM | 72.8 ± 7.0% | ERK1/2-phosphorylation % PDBu [5]: No response; ERK1/2-phosphorylation Log EC50 [5]: No response; IC50 (human α1B‐adrenoceptor [6]): > 1000 µM; cAMP accumulation % forskolin at 100 µM (human α1B‐adrenoceptor [11]): 73.4 ± 7.1%; Kd (human α1A‐adrenoceptor [12]; [14]): 102 µM
COc1ccc(OC)c(C(O)C(C)N)c1 (centres unmarked) [Methoxamine] | 2.42 ± 0.05 fold | 6.92 µM | No response | 0.229 µM | >3.64 | 59.1 ± 3.2% | 8.32 µM | 14.2 ± 3.9% | 1.56 | 4.17 µM | 22.6 ± 4.7% | 1.21 ± 0.04 | 10.5 µM | No response | 0.398 µM | 2.19 ± 0.09 fold | >42.7 fold | 6.5 fold | 0.0275 µM | 81.4 ± 4.5% | ERK1/2-phosphorylation % PDBu [5]: No response; ERK1/2-phosphorylation Log EC50 [5]: No response; IC50 (human α1B‐adrenoceptor [6]): > 1000 µM; cAMP accumulation % forskolin at 100 µM (human α1B‐adrenoceptor [11]): 24.2 ± 4.6%; Kd (human α1A‐adrenoceptor [12]; [14]): 23.4 µM
